Source: patent publication US20090105149A1, “Compounds comprising lpa” (ENKAM PHARMACEUTICALS A/S, priority 2003, published 2009)
Marks after values point to notes of the source that are not given here.

Assays:
dopaminergic neurons = assay: Survival of dopaminergic neurons exposed to 6-OHDA; type: cell-based, rat
Experimental: Dopaminergic neurons (DN) (a and b) from day 15 rat embryos grown at a density of 150,000 cells/cm^2 for six days without or with various concentrations of peptide on 24-well cell culture plates coated with poly-D-lysine were exposed to 100 μM 6-OHDA for two hours. Medium was changed and various concentrations of FGLd were added. The neurons were grown for another 24 hours before the cultures they were fixed and immunostained for tyrosine hydroxylase.
Dopaminergic neurons were prepared from Wistar rat embryos at embryonic day 15 (Charles River, Sulzfeld, Germany or Møllegaard, Denmark). A pregnant rat was sacrificed and the uterus was taken out and kept on ice in Hank's balanced salt solution (HBSS; Gibco, BRL). The ventral part of the mesencephalon was dissected from the embryonic brains, homogenised on ice in Gey's balanced salt solution (GBSS; Gibco, BRL) supplemented with 5 g glucose/l (Sigma-Aldrich) and thereafter trypsinised. The dissociated cells were washed in the presence of DNAse 1 and soybean trypsin inhibitor (Sigma-Aldrich).
For the survival assay isolated neurons were seeded at a density of 150,000 cells/cm^2 in 24-well cell culture plates coated with poly-D-lysine as described above. The neurons were left to differentiate for six days without or with various concentrations of the FGL peptide, after which 6-OHDA was added at a concentration of 100 μM for two hours. A stock solution was prepared by dissolving 6-OHDA to a concentration of 10 mM in 0.1% (w/v) sodium metabisulfite in order to prevent oxidation. After two hours with 6-OHDA, the medium was changed to Neurobasal medium with supplements and peptide, and the cell cultures were further incubated for 24 hours, fixed and immunostained for tyrosine hydroxylase. 98 images for each experimental condition in each individual experiment were automatically recorded as described for the dopaminergic neurite outgrowth assay below.

rats = assay: Morris Water Maze test; type: in vivo, rat
Experimental: In the Morris Water Maze test, rats are evaluated in the spatial training task to find a hidden platform in order to escape swimming in the water.
In the Morris Water Maze study, rats were pre-trained to locate a hidden platform by daily training for 120 seconds for five days (days−4 to 0) before the experiment. On days 1 and 2, rats were given 3 consecutive trials in which the platform location remained constant. The time during which the rats were able to locate the platform was recorded within a maximum test-period of 120 seconds. The rats received a 5 μl injection of the FGLd peptide (5 μg), the control peptide (5 μg), or the vehicle solution immediately after each training trial on days 1 and 2.
The animals were tested 24 hours (day 3) and 7 days (day 10) after training. Fourteen days after training (day 17), the location of the platform was changed. Rats were trained to find a new location of the platform in three consecutive trials (“reversal learning”). In total, 48 animals were evaluated. Animals were divided into three groups consisting of 12-18 rats per treatment group.

hippocampal neurons = assay: Neurite outgrowth, hippocampal neurons; type: cell-based, rat; conditions: 24 h
Experimental: The cultures were subsequently immunostained for tyrosine hydroxylase. Hippocampal neurons and CGN were plated at a density of 10,000 cells/cm^2 on 8-well permanox chamber slides and incubated for 24 hours in the presence of various concentrations of FGLd. Subsequently the neurons were immunostained for GAP-43. Results from at least five independent experiments for each neuronal culture are shown as percentage ±SEM with the untreated controls set at 100%. *p<0.05, **p<0.01, ***p<0.001 when compared to the controls.
Results from at least four independent experiments are shown as percentage SEM with untreated controls set at 100%. **p<0.01 when compared to the controls.
Peptide solutions without or with inhibitors of various signal transduction pathways were added to a total volume of 300 μl/cm^2, and the slides were incubated at 37° C. After 24 hours, the neurons were fixed with 4% (v/v) formaldehyde for 20 minutes and thereafter immunostained using primary rabbit antibodies against GAP-43 and Alexa Fluor secondary goat anti-rabbit antibodies. Images of at least 200 neurons for each group in each individual experiment were obtained systematically by using computer assisted fluorescence microscopy as previously described (Rønn et al., 2000 op. cit.). Briefly, a Nikon Diaphot inverted microscope with a Nikon Plan 20× objective (Nikon, Tokyo, Japan) coupled to a video camera (Grundig Electronics, Germany) was used for recordings. The same software package as described above for the dopaminergic neurite outgrowth assay was used to process the recorded images.

[1] = test system: cerebellar granule neurons (CGN); assay: TUNEL assay, DNA-fragmentation in KCl-deprived CGN; type: cell-based, rat; conditions: at 10-15 μg/ml; relative to apoptotic neurons without treatment
Experimental: The number of neurons with fragmented DNA was measured using the Apo-Alert apoptosis detection kit and the fraction of TUNEL-positive neurons was estimated by counting. Results from at least four independent experiments are shown as percentage of cells showing DNA-fragmentation relative to the total number of cells ±SEM with control cultures in low KCl set at 100%. • (a) Effect of depriving CGN cultures of high KCl on number of cells undergoing apoptosis. • (b) Effect of FGLd in apoptosis-induced CGN cultures.
24 hours after induction of apoptotic cell death, the cultures were fixed and the extent of DNA-fragmentation was measured using the ApoAlert apoptosis detection kit, essentially as described by the manufacturer. Briefly, blunt ends of double-stranded DNA molecules were enzymatically labelled with fluorescein-dUTP, and all the neurons were stained with propidium iodide at a concentration of 750 ng/ml. Images of at least 200 neurons from each group in each experiment were obtained using a BioRad Radiance laser scanning system 2000 coupled to a Nikon Eclipse TE 200 confocal microscope equipped with an oil immersion 60×1.4 NA objective (Nikon, Tokyo, Japan). The fraction of TUNEL-positive neurons was determined by counting.

rat pups = assay: Negative Geotaxis Reflex in rat pups; type: in vivo; conditions: PND 6; intranasal 2.6 μg per pup at PND 1, 2, 3
Experimental: The number of litters of each treatment group was six. The results were analysed using one-way ANOVA (FPND6=5.14; PPND6=0.008). […] FGLcontrol as above.
Sensory Motor Control Development study.

FGLd: MAP-type dendrimer of FGL; dendrimeric tetramer of the FGL peptide (EVYVVAENQQGKSKA)
Neuronal Survival (% of Control) (dopaminergic neurons; 6-OHDA, DA (E14), 1 μg/mL): 143%* % of Control | survival of dopaminergic neurons treated with 6-OHDA, maximal rescue (dopaminergic neurons; at 1 μg/ml, 6-OHDA-treated control = 100%): approximately 135% | time to locate the platform (rats; day 2, 5 μg after training, untreated rats 93.0 s): 65.8 s | time to locate the platform (reversal learning) (rats; day 17): statistically significant | neurite length, hippocampal neurons, plateau-like level (hippocampal neurons; 0.04 up to 20 μg/ml, untreated control = 100%): approximately 150% | Effect on Neurite Length (Percent Increase vs. Control) (hippocampal neurons; HN E19, 3 μg/mL): 65% | Effect on Neurite Length (Percent Increase vs. Control) (hippocampal neurons; HN E19, 9 μg/mL): 51% | Effect on Neurite Length (Percent Increase vs. Control) (hippocampal neurons; HN E19, 27 μg/mL): 69% | Effect on Neurite Length (Percent Increase vs. Control) (hippocampal neurons; HN Newborn, 0.04 μg/mL): 38% | Effect on Neurite Length (Percent Increase vs. Control) (hippocampal neurons; HN Newborn, 5 μg/mL): 45% | reduction of number of apoptotic CGN (DNA-fragmentation), maximal rescue [1]: 40% | Negative Geotaxis Reflex test, significance vs control and FGLcontrol groups (rat pups): statistically significant effects
